Reference: US20160050895A1, “TRANSGENIC NON-HUMAN ORGANISMS WITH NON-FUNCTIONAL TSPO GENES” (AUSTRALIAN NUCLEAR SCIENCE AND TECHNOLOGY ORGANIZATION, priority 2013, published 2016)
Entries after “also recorded” stand apart in the source; their conditions may differ.

Experiments:
TSPO [1] = test: Radioligand membrane saturation binding with 3H-PK11195; set-up: species or system mouse; conditions: testicular and kidney tissue; TSPO-/- mice compared to TSPO+/+ mice
Description: Tissue samples were homogenised with T25 digital Ultra-Turrax homogenizer (Ika, Wilmington, N.C., USA) at speed setting 5 or 20000 rpm in approximately 45 mL of ice-cold TRIS buffer (pH 7.4), collected by centrifugation at 48000 g and the supernatant was then discarded. The procedure was then immediately repeated, this acts as an extra wash step to remove any soluble interfering substances to radioligand binding (Byland et al. 1993). Following the second centrifugation and removal ofsupernatant the samples were resuspended in approximately 50 volumes of ice-cold TRIS buffer (pH 7.4). Samples were aliquoted stored in −80° C. until required.
For TSPO knock-out mice studies, radioligand binding was performed using 3H-PK11195 racemate across a range of concentrations (FIG. 4). PK11195 is a TSPO specific probe. Total and non-specific binding was determined through 8 concentrations of 3H-PK11195 ranging from 0.56 nM to 20 nM. Non-specific binding was determined by the addition of 5 μM PK11195 to all concentrations of 3H-PK11195. […]
Organs were homogenised, washed twice in ice-cold 50 mM Tris-HCl (pH 7.4) by centrifugation at 48000×g, resuspended in 50 volumes of ice-cold 50 mM Tris-HCl, and protein concentration was determined using a BCA protein assay kit (Thermo Fisher Scientific). […] Non-specific binding was determined with 5 μM PK11195. […]

TSPO [2] = test: Film autoradiography of brain sections after facial nerve axotomy; assay type: binding, mouse; conditions: TSPO-/- mice
Excerpt: Procedures for facial nerve axotomy were approved by the animal ethics committee at the University of Sydney. Animals were anaesthetised using Isoflurane anaesthesia. Animals were monitored for a combination of respiration, heart rate, oxygen saturation and temperature during procedures using a variety of monitoring equipment to ensure anaesthetic depth. The surgical process commenced when foot-pad or plantar reflex could no longer be elicited. The fur on the ipsilateral (right) side of the neck was shaved from the ear downwards, and the skin cleaned using 70% ethanol. A small incision (0.5-0.7 cm in length) overlying the musculature covering the stylomastoid foramen was made. The facial nerve was identified, isolated and then transected completely. The skin of incision was closed with heal-glue. […] The animals were euthanized with CO2 3 days after the axotomy and brain tissue, including facial nerve nuclei in the brain stem and cerebellum, was immediately dissected, snap-frozen in liquid nitrogen, and then stored in −80° C. freezer until the cryostat section.
A small incision (0.5-0.7 cm) in the skin 0.5 cm dorsal and lateral to the ear was made and the facial nerve transected under an operating microscope. The incision was closed with 3M™ Vetbond™ Tissue Adhesive (St. Paul, Minn., USA). […] Mice were monitored carefully and euthanized with CO2 three days after the operation. Brains were dissected, placed in OCT, transferred to liquid nitrogen, and stored at −80° C. until cryo-sectioning.
Tissue sections from TSPO^+/+, TSPO^+/− and TSPO^−/− mice were incubated at room temperature for 20 min in 170 mM Tris-HCl pH 7.4 containing 1 nM [^3H]PK11195 (specific activity 84 Ci/mmol; Perkin Elmer, Waltham, Mass., USA), washed twice for 5 min in 170 mM Tris-HCl, rinsed with 3 dips in ice-cold MilliQ H2O, and dried. […] Displacement binding was carried out in the presence of PK11195 (10 μM), CLINDE (10 μM) and PBR-11 (10 μM).

Compound: CC[C@@H](C)N(C)C(=O)c1cc2ccccc2c(-c2ccccc2Cl)n1 [[^3H]PK11195]
- Specific binding using [3H]PK11195 (TSPO [1]): close to zero signal
- TSPO ligand binding in the injured facial nucleus (TSPO [2]; after facial nerve axotomy, activated microglia present): no binding; also recorded: not associated with an increase in the binding
- selectivity in pathologically changed tissue (TSPO [2]; injured facial nucleus): high selectivity; also recorded: holds true
